In the first assay the test system is Nucleic Acid. The assay can be described thus: Ability to form intracellular covalent DNA topoisomerase II complex; activity expressed as the percentage of cellular protein-DNA complex formed (exp-2). The format is functional, cell-based.
For the compound `COc1cc([C@@H]2c3cc4c(cc3C(Nc3ccccc3)[C@H]3COC(=O)[C@H]23)OCO4)cc(O)c1O` (some centres not stated), the Complex formation was found to be 128%.

The next assay concerns the target T1, DNA topoisomerase II (Homo sapiens) (UniProt P11388+Q02880). The assay can be described thus: Ability to form intracellular covalent DNA topoisomerase II complex; activity expressed as the percentage of cellular protein-DNA complex formed (exp-1). The format is cell-based.
In the case of `COc1cc([C@@H]2c3cc4c(cc3C(Nc3ccccc3)[C@H]3COC(=O)[C@H]23)OCO4)cc(O)c1O` (some centres not stated), the Complex formation turned out to be 105%.

A further assay has as its target T1, DNA topoisomerase II (Homo sapiens). Nature of the assay: Percentage of intracellular covalent DNA-topoisomerase II complexes formed. The format is cell-based.
Regarding `COc1cc2c(cc1OC)[C@@H](Nc1ccc([N+](=O)[O-])cc1)[C@H]1COC(=O)[C@@H]1[C@@H]2c1cc(OC)c(OC)c(OC)c1`, the Complex formation stood at 8%.

In turn, `COc1cc([C@@H]2c3cc4c(cc3[C@@H](Nc3ccc(N)cc3)[C@H]3COC(=O)[C@H]23)OCO4)cc(OC)c1O` showed a Complex formation of 330%. With `COc1cc([C@@H]2c3cc4c(cc3[C@@H](NC(C)C)[C@H]3COC(=O)[C@H]23)OCO4)cc(OC)c1O`, the Complex formation is 109%. Same read-out and setting: the value for `COc1cc([C@@H]2c3cc4c(cc3[C@@H](NC(=O)NCCCl)[C@H]3COC(=O)[C@H]23)OCO4)cc(OC)c1O` was 143%; that for `COc1cc([C@@H]2c3cc4c(cc3[C@@H](Nc3ccc(C(=O)O)cc3)[C@H]3COC(=O)[C@H]23)OCO4)cc(OC)c1O` was 6.9%. The same measure, in the same setting: for `COc1ccc(N[C@@H]2c3cc4c(cc3[C@@H](c3cc(OC)c(O)c(OC)c3)[C@H]3C(=O)OC[C@@H]32)OCO4)c([N+](=O)[O-])c1` the value was 15%; for `COc1cc([C@@H]2c3cc4c(cc3[C@@H](NC[C@H](C)O)[C@H]3COC(=O)[C@H]23)OCO4)cc(OC)c1O`, 167%.

In the case of `COc1cc([C@@H]2c3cc4c(cc3[C@@H](O[C@@H]3O[C@@H]5CO[C@@H](C)O[C@H]5[C@H](O)[C@H]3O)[C@H]3COC(=O)[C@H]23)OCO4)c(Cl)c(OC)c1O`, the Complex formation is 6.1%. Compound `CCCN[C@@H]1c2cc3c(cc2[C@@H](c2cc(OC)c(O)c(OC)c2)[C@H]2C(=O)OC[C@@H]21)OCO3` came in with a Complex formation of 69.7%.

With `COc1cc([C@@H]2c3cc4c(cc3[C@@H](NC(=O)Nc3ccc(F)cc3)[C@H]3COC(=O)[C@H]23)OCO4)cc(OC)c1O`, the Complex formation is 118%. The compound `COc1cc([C@@H]2c3cc4c(cc3[C@@H](OC(=O)c3ccccc3)[C@H]3COC(=O)[C@H]23)OCO4)cc(OC)c1O` registered a Complex formation of 94%. Same read-out and setting: for `COc1cc2c(cc1OC)[C@@H](c1cc(OC)c(OC)c(OC)c1)[C@H]1C(=O)OC[C@@H]1C2Nc1ccc(F)cc1` (some centres not stated) the value was 8%; for `COc1cc([C@@H]2c3cc4c(cc3[C@@H](NCc3ccccc3[N+](=O)[O-])[C@H]3COC(=O)[C@H]23)OCO4)cc(OC)c1O`, 144%; for `COC(=O)c1ccc(N[C@@H]2c3cc4c(cc3[C@@H](c3cc(OC)c(O)c(OC)c3)[C@H]3C(=O)OC[C@@H]32)OCO4)cc1`, 207%.

The compound `COC(=O)c1cc(N[C@@H]2c3cc4c(cc3[C@@H](c3cc(OC)c(O)c(OC)c3)[C@H]3C(=O)OC[C@@H]32)OCO4)ccc1O` had a Complex formation of 83%.

With `COc1cc([C@@H]2c3cc4c(cc3[C@@H](NC(=O)c3ccc(OC(C)=O)cc3)[C@H]3COC(=O)[C@H]23)OCO4)cc(OC)c1O`, the Complex formation amounted to 137%.

Turning to `COc1cc([C@@H]2c3cc4c(cc3[C@@H](Nc3cc([N+](=O)[O-])cc([N+](=O)[O-])c3)[C@H]3COC(=O)[C@H]23)OCO4)cc(OC)c1O`, the Complex formation is 20%.

The compound `COc1cc([C@@H]2c3cc4c(cc3C(Nc3ccc(C#N)cc3)[C@H]3COC(=O)[C@H]23)OCO4)cc(O)c1O` (some centres not stated) yielded a Complex formation of 146%. Turning to `CCOC(=O)c1ccc(NC2c3cc(OC)c(OC)cc3[C@@H](c3cc(OC)c(OC)c(OC)c3)[C@H]3C(=O)OC[C@H]23)cc1` (some centres not stated), the Complex formation is 9%. On the same count and under the same terms, the value for `COc1cc([C@@H]2c3cc4c(cc3C(Nc3ccc5c(c3)OCCO5)[C@H]3COC(=O)[C@H]23)OCO4)cc(O)c1O` (some centres not stated) was 119%.

The compound `COc1cc([C@@H]2c3cc4c(cc3[C@@H](NCc3cccc(N)c3)[C@H]3COC(=O)[C@H]23)OCO4)cc(OC)c1O` registered a Complex formation of 191%.

Consider `COc1cc([C@@H]2c3cc4c(cc3C(Nc3cccc([N+](=O)[O-])c3)[C@H]3COC(=O)[C@H]23)OCO4)cc(O)c1O` (some centres not stated), for which the Complex formation is 75%. In turn, `COc1cc([C@@H]2c3cc4c(cc3[C@@H](NC(=O)c3ccc([N+](=O)[O-])cc3)[C@H]3COC(=O)[C@H]23)OCO4)cc(OC)c1O` showed a Complex formation of 160%.

Turning to `C=CCN[C@@H]1c2cc3c(cc2[C@@H](c2cc(OC)c(O)c(OC)c2)[C@H]2C(=O)OC[C@@H]21)OCO3`, the Complex formation was determined as 84.1%.

Compound `COc1cc([C@@H]2c3cc4c(cc3[C@@H](OC(=O)c3cccc(N)c3)[C@H]3COC(=O)[C@H]23)OCO4)cc(OC)c1O` had a Complex formation of 100%. As to `COc1cc([C@@H]2c3cc4c(cc3[C@@H](Nc3cc(OC)c(OC)c(OC)c3)[C@H]3COC(=O)[C@H]23)OCO4)cc(OC)c1O`, the Complex formation was found to be 47%. Still for that read-out and setting: for `COc1cc([C@@H]2c3cc4c(cc3[C@@H](NC(=O)c3cccc(N)c3)[C@H]3COC(=O)[C@H]23)OCO4)cc(OC)c1O` the value was 149%; for `COc1cc([C@@H]2c3cc4c(cc3[C@@H](Nc3ccc(NC(=O)c5cc(NC(=O)c6cc([N+](=O)[O-])cn6C)cn5C)cc3)[C@H]3COC(=O)[C@H]23)OCO4)cc(OC)c1O`, 26%; for `COc1cc([C@@H]2c3cc4c(cc3[C@@H](NC(=O)c3ccccc3)[C@H]3COC(=O)[C@H]23)OCO4)cc(OC)c1O`, 177%. Still for that read-out and setting: the value for `COc1cc([C@@H]2c3cc4c(cc3[C@@H](NCCCO)[C@H]3COC(=O)[C@H]23)OCO4)cc(OC)c1O` was 89.2%; that for `COc1cc([C@@H]2c3cc4c(cc3C(Nc3ccc(C(C)=O)cc3)[C@H]3COC(=O)[C@H]23)OCO4)cc(O)c1O` (some centres not stated) was 147%; that for `COC(=O)c1cccc(N[C@@H]2c3cc4c(cc3[C@@H](c3cc(OC)c(O)c(OC)c3)[C@H]3C(=O)OC[C@@H]32)OCO4)c1` was 249%. The same measure, in the same setting: for `COC(=O)c1cccc(NC2c3cc4c(cc3[C@@H](c3cc(O)c(O)c(OC)c3)[C@H]3C(=O)OC[C@H]23)OCO4)c1` (some centres not stated) the value was 94%; for `CNC(=O)N[C@@H]1c2cc3c(cc2[C@@H](c2cc(OC)c(O)c(OC)c2)[C@H]2C(=O)OC[C@@H]21)OCO3`, 81%.

As to `COc1cc([C@@H]2c3cc4c(cc3[C@@H](NC(=O)c3cccc([N+](=O)[O-])c3)[C@H]3COC(=O)[C@H]23)OCO4)cc(OC)c1O`, the Complex formation came out at 86%. On the same count and under the same terms, for `COc1cc([C@@H]2c3cc4c(cc3[C@@H](Nc3ccc(I)cc3)[C@H]3COC(=O)[C@H]23)OCO4)cc(OC)c1O` the value was 64%. Compound `COc1cc([C@@H]2c3cc4c(cc3[C@@H](Nc3cc([N+](=O)[O-])ccc3O)[C@H]3COC(=O)[C@H]23)OCO4)cc(OC)c1O` displayed a Complex formation of 15%. The same measure, in the same setting: the value for `COc1cc([C@@H]2c3cc4c(cc3[C@@H](NC(=O)c3ccc(C#N)cc3)[C@H]3COC(=O)[C@H]23)OCO4)cc(OC)c1O` was 159%. On the same count and under the same terms, for `CCOC(=O)c1ccc(N[C@@H]2c3cc4c(cc3[C@@H](c3cc(OC)c(O)c(OC)c3)[C@H]3C(=O)OC[C@@H]32)OCO4)cc1` the value was 207%; for `COc1cc([C@@H]2c3cc4c(cc3[C@@H](Nc3ccccc3)[C@H]3COC(=O)[C@H]23)OCO4)cc(OC)c1O`, 243%.

(Values after ChEMBL document CHEMBL1135425, “Antitumor agents. 213. Modeling of epipodophyllotoxin derivatives using variable selection k nearest neighbor QSAR method” (J Med Chem, 2002).)
